Publication PMC9696832, “Pyrazole-Based Thrombin Inhibitors with a Serine-Trapping Mechanism of Action: Synthesis and Biological Activity” (Pharmaceuticals, 2022)
Several values for one entry are separate records, joined by “and”; a condition that tells them apart may be missing. Identical values can stand only once. Like-named read-outs stand apart in the source and are kept apart here.

Experiments:
human plasma kallikrein = molecular target: T1, human plasma kallikrein (Homo sapiens, UniProt P03952); test: Serine protease inhibition assay, fluorogenic substrate: plasma kallikrein; format: biochemical; conditions: screened at 5 μM; IC50 in triplicate for actives; [S]0 = 25 µM; read-out: Serine Protease IC50 ± SD, PK (plasma kallikrein)
T1 construct: human plasma kallikrein, >94% purity; purchased Innovative Research
Procedure: (§1) Serine protease inhibition assays. The inhibitory activity of synthesized compounds towards thrombin, FXIIa, FXa, FXIa, plasmin, plasma kallikrein, chymotrypsin, and trypsin was measured by quantifying the hydrolysis rate of the fluorogenic substrate as reported previously. Briefly, the activity was tested in buffer (10 mM Tris-Cl, 150 mM NaCl, 10 mM MgCl2·6H2O, 1 mM CaCl2·2H2O, 0.1% w/v BSA, 0.01% v/v Triton-X100, pH = 7.4) utilizing clear flat-bottom, black polystyrene 96 well-plates. […] Dilutions of test-compounds ranging from 2 nM to 32 µM (final concentrations) in DMSO were prepared. The fluorogenic substrate solution was added into the wells followed by the addition of 2 µL of test-compounds solution, and the reaction was triggered by addition of the enzyme solution (final testing volume–152 µL). In case of blank (substrate + buffer) and control (substrate + enzyme) wells, 2 µL of DMSO was added instead of the test-compounds’ solution. Fluorescence intensity was measured with Microplate Reader Mithras LB 940 (Berthold Technologies, excitation at 355 nm, emission at 460 nm) for a period of 1 h (thrombin, FXIIa, FXa, FXIa, and trypsin), 30 min (plasma kallikrein, chymotrypsin), or 15 min (plasmin) with a read every minute. The reactions were performed at 25 °C. To derive IC50 values, endpoint RFU (single fluorescence reading) was used. Sigmoidal curves were prepared in GraphPad Prism software and IC50 values were derived from the fitted curves.

human α-thrombin [1] = molecular target: T2, human α-thrombin (Homo sapiens, UniProt P00734); test: Serine protease inhibition assay, fluorogenic substrate: thrombin; format: biochemical; conditions: for IC50: read-out: Serine Protease IC50 ± SD, Thrombin
T2 construct: human α-thrombin (active) protein; purchased antibodies-online ABIN2127880
Procedure: Serine protease inhibition assays. The inhibitory activity of synthesized compounds towards thrombin, FXIIa, FXa, FXIa, plasmin, plasma kallikrein, chymotrypsin, and trypsin was measured by quantifying the hydrolysis rate of the fluorogenic substrate as reported previously [14, 17]. Briefly, the activity was tested in buffer (10 mM Tris-Cl, 150 mM NaCl, 10 mM MgCl2·6H2O, 1 mM CaCl2·2H2O, 0.1% w/v BSA, 0.01% v/v Triton-X100, pH = 7.4) utilizing clear flat-bottom, black polystyrene 96 well-plates. […] The fluorogenic substrate solution was added into the wells followed by the addition of 2 µL of test-compounds solution, and the reaction was triggered by addition of the enzyme solution (final testing volume–152 µL). In case of blank (substrate + buffer) and control (substrate + enzyme) wells, 2 µL of DMSO was added instead of the test-compounds’ solution. […] To derive IC50 values, endpoint RFU (single fluorescence reading) was used. Sigmoidal curves were prepared in GraphPad Prism software and IC50 values were derived from the fitted curves [14, 17].

human Factor XIa = molecular target: T3, human Factor XIa (Homo sapiens, UniProt P03951); test: Serine protease inhibition assay, fluorogenic substrate: FXIa; format: biochemical
T3 construct: human Factor XIa, HFXIA; purchased Molecular Innovations HFXIA
Procedure: as §1

human pooled plasma [2] = test: In vitro plasma coagulation assay (aPTT); format: biochemical; conditions: tested at 200 μM
Procedure: (§2) In vitro plasma coagulation assays (aPTT and PT). All measurements were performed using commercially available citrated (3.8%) human pooled plasma (Dunn Labortechnik GmbH, Germany) on a semi-automated coagulometer (Thrombotimer-2, Behnk Elektronik, Germany) according to the manufacturer instructions as previously reported. For aPTT measurement, plasma (100 μL) was placed into the incubation cuvettes of the instrument and incubated for 2 min at 37 °C. Then, test compound solution (10 μL) or solvent (DMSO, 10 μL) was added with a pipette. After 1 min of incubation, 100 μL of prewarmed (37 °C) aPTT reagent (Convergent Technologies, Germany) was added and incubated for additional 2 min. The cuvettes were transferred to a measuring position, the coagulation was initiated by addition of 100 μL of CaCl2 solution (25 mM, prewarmed at 37 °C, Convergent Technologies, Germany) and the clotting time was recorded. For PT assays, plasma (100 μL) was incubated for 2 min at 37 °C. Then, test compound solution (10 μL) or solvent (DMSO, 10 μL) was added with a pipette. After 3 min of incubation, the cuvettes were transferred to a measuring position, the coagulation was initiated by addition of 100 μL of PT assay reagent already containing CaCl2 (prewarmed at 37 °C, Biolabo, France) and the clotting time was recorded.

human Factor Xa = molecular target: T4, human Factor Xa (Homo sapiens, UniProt P00742); test: Serine protease inhibition assay, fluorogenic substrate: FXa; format: biochemical; conditions: for IC50: screened at 5 μM, IC50 in triplicate for actives, [S]0 = 25 µM, read-out: Serine Protease IC50 ± SD, FXa
T4 construct: human Factor Xa, HFXA; purchased Molecular Innovations HFXA
Procedure: as §1

human pooled plasma [3] = test: In vitro plasma coagulation assay (PT); format: biochemical; conditions: tested at 200 μM
Procedure: as §2

human chymotrypsin = test: Serine protease inhibition assay, fluorogenic substrate: chymotrypsin; format: biochemical; conditions: for IC50: screened at 5 μM, IC50 in triplicate for actives, [S]0 = 25 µM, read-out: Serine Protease IC50 ± SD, Chymotrypsin
Procedure: as §1

human β-FXIIa = molecular target: T5, human β-FXIIa (Homo sapiens, UniProt P00748); test: Serine protease inhibition assay, fluorogenic substrate: FXIIa; format: biochemical; conditions: read-out: Serine Protease IC50 ± SD, FXIIa
T5 construct: human β-FXIIa, HFXIIAB; purchased Molecular Innovations HFXIIAB
Procedure: as §1

human plasmin = molecular target: T6, human plasmin (Homo sapiens, UniProt P00747); test: Serine protease inhibition assay, fluorogenic substrate: plasmin; format: biochemical; conditions: screened at 5 μM; [S]0 = 25 µM; read-out: Serine Protease IC50 ± SD, Plasmin
T6 construct: human plasmin, >95% purity; purchased Innovative Research
Procedure: as §1

human α-thrombin [4] = molecular target: T2, human α-thrombin; test: Mass-shift assay of the covalent thrombin-inhibitor complex by LC/ESI-MS; conditions: 79 μM inhibitor, preincubated 15 min, ESI(+); corresponds to pivaloyl moiety
Procedure: Analysis of the covalent thrombin-inhibitor complex by LC/ESI-MS. The analysis of covalent thrombin-inhibitor complex was performed utilizing LC/ESI-MS as reported previously with variations. Briefly, 2 µL of the stock solution (128 µM) of human α-thrombin (active) protein (ABIN2127880, >95% purity; antibodies-online) were diluted with 68 µL of purified water. […] Reversed phase liquid chromatography was performed using a Discovery BIO Wide Pore C5 column (100 × 2.1 mm, 3 µm particle size, 300 Å pore size) from Supelco (Bellefonte, PA, USA). For chromatographic analysis of the sample solutions, 0.1% formic acid in purified water (A) and 0.1% formic acid in acetonitrile (B) were used as mobile phase. The following gradient of 15 min in total was applied: starting with 5% B, B is increased up to 40% within 3 min. After holding 40% B for 1.5 min, B is decreased to 5% within 0.5 min and kept at 5% for 1 min. B is then increased to 95% within 4 min and kept at this value for 1 min. After decreasing B to 5% within 1 min, this ratio is kept for 3 min. […] The enzyme-inhibitor complex was analyzed in the positive ion mode using the following ESI-MS parameters: The mass range was set to m/z 1000–4000, nebulizer gas (nitrogen) was 1.6 bar, dry gas (nitrogen) was 9.0 L/min, dry gas temperature was 200 °C, Funnel 1 RF was 450 V, pre pulse storage time was 30 µs and transfer time was 100 µs. […]

porcine trypsin = molecular target: T7, porcine trypsin (Sus scrofa, UniProt P00761); test: Serine protease inhibition assay, fluorogenic substrate: trypsin; format: biochemical; conditions: screened at 5 μM; [S]0 = 25 µM; read-out: Serine Protease IC50 ± SD, Trypsin
T7 construct: porcine trypsin; Merck; purchased Merck
Procedure: as §1

[5] = [S]0 = 25 µM Boc-Val-Pro-Arg-AMC, Km = 18 ± 1 µM, triplicate, 25 °C
[6] = screened at 5 μM, IC50 in triplicate for actives, [S]0 = 25 µM, read-out: Serine Protease IC50 ± SD, FXIa

T1 sequence (P03952 391-638 limits assumed): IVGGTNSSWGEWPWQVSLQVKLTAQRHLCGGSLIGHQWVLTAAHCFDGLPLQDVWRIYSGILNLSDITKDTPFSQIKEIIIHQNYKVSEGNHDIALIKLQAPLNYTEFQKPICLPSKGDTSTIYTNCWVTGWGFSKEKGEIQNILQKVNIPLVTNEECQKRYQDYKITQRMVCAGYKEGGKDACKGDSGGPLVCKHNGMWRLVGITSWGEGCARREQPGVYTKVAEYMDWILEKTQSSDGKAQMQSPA
T1 sequence (P03952 20-390 limits assumed): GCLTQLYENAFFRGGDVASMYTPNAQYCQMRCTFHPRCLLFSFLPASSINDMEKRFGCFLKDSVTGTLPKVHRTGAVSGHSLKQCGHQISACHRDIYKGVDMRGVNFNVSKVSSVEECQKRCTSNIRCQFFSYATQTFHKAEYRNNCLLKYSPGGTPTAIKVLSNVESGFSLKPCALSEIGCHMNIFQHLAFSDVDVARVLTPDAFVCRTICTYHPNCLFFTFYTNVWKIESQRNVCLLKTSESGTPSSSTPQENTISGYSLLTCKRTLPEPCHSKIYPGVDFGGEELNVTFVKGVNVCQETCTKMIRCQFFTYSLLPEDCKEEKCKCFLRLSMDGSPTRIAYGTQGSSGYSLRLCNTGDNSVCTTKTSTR
T4 sequence (P00742 235-488 limits assumed): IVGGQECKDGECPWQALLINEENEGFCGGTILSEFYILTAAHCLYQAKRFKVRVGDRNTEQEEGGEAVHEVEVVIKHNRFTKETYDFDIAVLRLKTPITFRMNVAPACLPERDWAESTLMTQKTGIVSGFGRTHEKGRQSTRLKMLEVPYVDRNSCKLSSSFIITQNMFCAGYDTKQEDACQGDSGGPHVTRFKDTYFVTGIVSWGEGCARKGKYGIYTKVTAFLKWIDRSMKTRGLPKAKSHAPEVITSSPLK
T4 sequence (P00742 41-179 limits assumed): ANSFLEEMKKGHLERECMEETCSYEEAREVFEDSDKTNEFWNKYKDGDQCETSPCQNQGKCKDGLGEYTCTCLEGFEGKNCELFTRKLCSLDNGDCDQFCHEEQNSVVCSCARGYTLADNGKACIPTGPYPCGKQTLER
T5 sequence (P00748 373-615 limits assumed, other chains not shown): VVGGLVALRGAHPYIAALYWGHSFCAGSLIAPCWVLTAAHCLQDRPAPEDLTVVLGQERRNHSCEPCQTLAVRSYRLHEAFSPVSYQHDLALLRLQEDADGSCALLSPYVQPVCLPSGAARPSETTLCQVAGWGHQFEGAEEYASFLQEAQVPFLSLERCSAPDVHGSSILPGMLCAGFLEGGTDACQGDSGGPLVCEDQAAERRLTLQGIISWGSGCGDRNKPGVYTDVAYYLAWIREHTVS
T3 sequence (P03951 388-625 limits assumed): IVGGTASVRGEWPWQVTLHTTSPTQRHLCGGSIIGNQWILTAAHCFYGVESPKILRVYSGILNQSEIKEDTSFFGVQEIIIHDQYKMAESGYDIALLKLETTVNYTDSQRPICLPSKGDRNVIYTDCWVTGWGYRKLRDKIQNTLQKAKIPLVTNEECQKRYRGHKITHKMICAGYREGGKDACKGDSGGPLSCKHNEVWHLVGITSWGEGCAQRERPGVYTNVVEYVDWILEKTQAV
T3 sequence (P03951 19-387 limits assumed): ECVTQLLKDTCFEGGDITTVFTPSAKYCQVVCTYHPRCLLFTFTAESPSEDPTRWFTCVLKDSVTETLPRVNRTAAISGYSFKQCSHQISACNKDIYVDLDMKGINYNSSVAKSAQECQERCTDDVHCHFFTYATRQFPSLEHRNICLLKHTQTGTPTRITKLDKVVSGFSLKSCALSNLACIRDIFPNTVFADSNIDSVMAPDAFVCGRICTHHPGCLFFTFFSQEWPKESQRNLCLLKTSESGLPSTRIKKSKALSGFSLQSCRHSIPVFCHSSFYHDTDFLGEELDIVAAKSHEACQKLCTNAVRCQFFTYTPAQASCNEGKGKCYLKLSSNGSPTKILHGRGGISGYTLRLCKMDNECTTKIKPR
T7 sequence (P00761 9-231): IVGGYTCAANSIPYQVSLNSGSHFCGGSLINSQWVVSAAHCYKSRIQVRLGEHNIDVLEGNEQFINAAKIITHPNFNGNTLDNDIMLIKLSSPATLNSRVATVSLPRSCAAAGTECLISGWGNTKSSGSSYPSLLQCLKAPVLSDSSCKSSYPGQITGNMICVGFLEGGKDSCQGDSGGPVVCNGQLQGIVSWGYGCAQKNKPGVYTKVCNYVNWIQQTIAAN
T6 sequence (P00747 581-810 limits assumed): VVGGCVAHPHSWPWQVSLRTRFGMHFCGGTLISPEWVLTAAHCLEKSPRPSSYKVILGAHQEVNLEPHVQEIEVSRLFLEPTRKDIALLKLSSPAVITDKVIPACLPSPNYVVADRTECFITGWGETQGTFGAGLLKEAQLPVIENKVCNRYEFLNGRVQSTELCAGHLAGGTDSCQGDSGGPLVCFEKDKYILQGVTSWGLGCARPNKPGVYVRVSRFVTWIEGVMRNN
T6 sequence (P00747 97-580 limits assumed): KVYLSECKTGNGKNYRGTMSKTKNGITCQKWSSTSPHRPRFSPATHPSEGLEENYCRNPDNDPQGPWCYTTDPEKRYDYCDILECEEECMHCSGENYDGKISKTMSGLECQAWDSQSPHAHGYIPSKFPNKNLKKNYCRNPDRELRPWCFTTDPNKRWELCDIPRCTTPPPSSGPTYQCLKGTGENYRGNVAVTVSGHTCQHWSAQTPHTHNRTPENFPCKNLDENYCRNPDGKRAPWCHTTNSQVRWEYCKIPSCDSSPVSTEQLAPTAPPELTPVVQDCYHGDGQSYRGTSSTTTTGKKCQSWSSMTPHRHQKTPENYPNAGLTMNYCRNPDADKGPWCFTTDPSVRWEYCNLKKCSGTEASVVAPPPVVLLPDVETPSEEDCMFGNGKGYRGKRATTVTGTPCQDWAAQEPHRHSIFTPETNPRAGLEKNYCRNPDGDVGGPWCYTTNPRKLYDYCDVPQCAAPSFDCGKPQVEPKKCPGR

CC(C)(C)C(=O)n1nc(-c2cccnc2)cc1NCc1ccc(Cl)s1 [24e, 1-(5-{[(5-chlorothiophen-2-yl)methyl]amino}-3-(pyridin-3-yl)-1H-pyrazol-1-yl)-2,2-dimethylpropan-1-one]
IC50 (human plasma kallikrein): > 5 µM
fold more potent thrombin inhibitor than 3-phenyl-substituted analog 24g (human α-thrombin [1]; IC50 16 nM vs. 419): 26 fold
IC50 (human α-thrombin [1]; [5]): 16 ± 1 nM
IC50 (human Factor XIa; [6]): > 5000 nM
aPTT, fold increase compared to DMSO (human pooled plasma [2]): 1.1 fold
IC50 (human Factor Xa): > 5 µM
melting point: 96 to 97 °C
PT, fold increase compared to DMSO (human pooled plasma [3]): 1.1 fold
IC50 (human chymotrypsin): 875 ± 59 nM
fold higher dose for 50% inhibition of chymotrypsin than for thrombin (human chymotrypsin; selectivity chymotrypsin vs thrombin): 55 fold
IC50 (human β-FXIIa): > 5 µM
IC50 (human plasmin): > 5 µM
mass-shift of thrombin after incubation with inhibitor (Δm) (human α-thrombin [4]): 84.5 Da and 84.53 Da
IC50 (porcine trypsin): > 5 µM

CC(C)(C)C(=O)n1nc(C2CCCCC2)cc1NCc1ccc(Cl)s1 [24i, 1-(5-{[(5-chlorothiophen-2-yl)methyl]amino}-3-cyclohexyl-1H-pyrazol-1-yl)-2,2-dimethylpropan-1-one]
IC50 (human α-thrombin [1]; [5]): > 5000 nM
melting point: 92 to 93 °C
IC50 (human β-FXIIa): > 5 µM

CC(C)(C)C(=O)n1nc(-c2ccccc2)c(F)c1NCc1ccc(Cl)s1 [34a, 1-(5-(((5-chlorothiophen-2-yl)methyl)amino)-4-fluoro-3-phenyl-1H-pyrazol-1-yl)-2,2-dimethylpropan-1-one]
IC50 (human plasma kallikrein): > 5 µM
IC50 (human α-thrombin [1]; [5]): 80 ± 2 nM
IC50 (human Factor XIa; [6]): > 5000 nM
aPTT, fold increase compared to DMSO (human pooled plasma [2]): 1.0 fold
IC50 (human Factor Xa): > 5 µM
PT, fold increase compared to DMSO (human pooled plasma [3]): 1.1 fold
IC50 (human chymotrypsin): > 5000 nM
IC50 (human β-FXIIa): > 5 µM
IC50 (human plasmin): > 5 µM
IC50 (porcine trypsin): > 5 µM

O=C(c1ccccc1)n1nc(-c2ccccc2)c(F)c1NCc1ccc(Cl)s1 [34b, (5-(((5-chlorothiophen-2-yl)methyl)amino)-4-fluoro-3-phenyl-1H-pyrazol-1-yl)(phenyl)methanone]
IC50 (human plasma kallikrein): > 5 µM
IC50 (human α-thrombin [1]): 71 ± 3 nM
IC50 (human Factor XIa; [6]): > 5000 nM
aPTT, fold increase compared to DMSO (human pooled plasma [2]): 1.0 fold
IC50 (human Factor Xa): > 5 µM
PT, fold increase compared to DMSO (human pooled plasma [3]): 1.1 fold
IC50 (human chymotrypsin): 1150 ± 110 nM
IC50 (human β-FXIIa): > 5 µM
IC50 (human plasmin): > 5 µM
IC50 (porcine trypsin): > 5 µM

O=C(c1ccccc1)n1nc(-c2cccnc2)cc1NCc1ccc(Cl)s1 [compound 25, (5-{[(5-chlorothiophen-2-yl)methyl]amino}-3-(pyridin-3-yl)-1H-pyrazol-1-yl)(phenyl)methanone]
IC50 (human plasma kallikrein): 0.639 ± 0.156 µM
IC50 (human α-thrombin [1]; [5]): 18 ± 1 nM
IC50 (human Factor XIa; read-out: FXIa IC50): 1000 nM
IC50 (human Factor XIa; [6]): 1020 ± 90 nM
aPTT, fold increase compared to DMSO (human pooled plasma [2]): 1.1 fold
inhibition at 5 µM (human Factor Xa; at 5 μM): 54%
IC50 (human Factor Xa): ~5 µM
PT, fold increase compared to DMSO (human pooled plasma [3]): 1.2 fold
IC50 (human chymotrypsin): 242 ± 13 nM
IC50 (human β-FXIIa): > 5 µM
IC50 (human plasmin): > 5 µM
IC50 (porcine trypsin): > 5 µM
